Data as given in PubChem BioAssay AID248 (DTP/NCI, 2004).
Inconclusive results and toxic doses are left out. No stated cut-off is given here; in the data, active means T/C of 150% or more; inactive means T/C below 125%.

Tested on: L1210 leukemia ip in BDF1 mice, survival T/C
Experiment: NCI In Vivo Anticancer Drug Screen. Data for tumor model L1210 Leukemia (intraperitoneal) in B6D2F1 (BDF1) mice
Details: endpoint: mean survival time, higher = longer survival
Summary of the method: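 Ratio derived from survival: compound-dosed mice over vehicle-dosed mice, all bearing a transplantable tumor.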

[1] = dose: 100.0 mg/kg/injection, schedule: Q04DX003 (ip), vehicle: other
[2] = dose: 200.0 mg/kg/injection, schedule: Q04DX003 (ip), vehicle: other
[3] = dose: 400.0 mg/kg/injection, schedule: Q04DX003 (ip), vehicle: other

Measured: T/C

Cc1cc(C(C)(C)C)cc(C)c1O
inactive: dose: 100.0 mg/kg/injection, schedule: Q01DX009 (ip), vehicle: Klucel (hydroxypropylcellulose) (HPC) 97 % of control | dose: 100.0 mg/kg/injection, schedule: Q04DX003 (ip), vehicle: Klucel (hydroxypropylcellulose) (HPC) 95 % of control | dose: 200.0 mg/kg/injection, schedule: Q01DX009 (ip), vehicle: Klucel (hydroxypropylcellulose) (HPC) 100 % of control | dose: 200.0 mg/kg/injection, schedule: Q04DX003 (ip), vehicle: Klucel (hydroxypropylcellulose) (HPC) 95 % of control | dose: 400.0 mg/kg/injection, schedule: Q01DX009 (ip), vehicle: Klucel (hydroxypropylcellulose) (HPC) 97 % of control | dose: 400.0 mg/kg/injection, schedule: Q04DX003 (ip), vehicle: Klucel (hydroxypropylcellulose) (HPC) 95 % of control

CCCCCCCCCCC(=O)NC1CCC(CC2CCCCC2)CC1 (stereo unspecified)
inactive: [1] 101 % of control | [2] 103 % of control | [3] 101 % of control

O/C(=C/C(=S)S)c1cccs1
inactive: dose: 0.78 mg/kg/injection, schedule: Q01DX009 (ip), vehicle: water 103 % of control | dose: 1.56 mg/kg/injection, schedule: Q01DX009 (ip), vehicle: water 105 % of control | dose: 3.12 mg/kg/injection, schedule: Q01DX009 (ip), vehicle: water 102 % of control | dose: 6.25 mg/kg/injection, schedule: Q01DX009 (ip), vehicle: water 95 % of control | dose: 12.5 mg/kg/injection, schedule: Q04DX003 (ip), vehicle: water 102 % of control | dose: 25.0 mg/kg/injection, schedule: Q04DX003 (ip), vehicle: water 94 % of control | dose: 50.0 mg/kg/injection, schedule: Q04DX003 (ip), vehicle: water 100 % of control

CC(C)c1oc2ccccc2c1C(=O)c1ccncc1
inactive: dose: 75.0 mg/kg/injection, schedule: Q04DX003 (ip), vehicle: saline with Tween-80 97 % of control | dose: 150.0 mg/kg/injection, schedule: Q04DX003 (ip), vehicle: saline with Tween-80 101 % of control | dose: 300.0 mg/kg/injection, schedule: Q04DX003 (ip), vehicle: saline with Tween-80 101 % of control

CCCC(C)c1c(N)nc(N)[nH]c1=O (stereo unspecified)
inactive: dose: 80.0 mg/kg/injection, schedule: Q01DX001 (ip), vehicle: Klucel (hydroxypropylcellulose) (HPC) 103 % of control | dose: 160.0 mg/kg/injection, schedule: Q01DX001 (ip), vehicle: Klucel (hydroxypropylcellulose) (HPC) 92 % of control | dose: 320.0 mg/kg/injection, schedule: Q01DX001 (ip), vehicle: Klucel (hydroxypropylcellulose) (HPC) 94 % of control

CC(/C=N/NC(=O)NO)=N\NC(=O)NO
inactive: dose: 100.0 mg/kg/injection, schedule: Q01DX001 (ip), vehicle: other 98 % of control | dose: 100.0 mg/kg/injection, schedule: Q01DX009 (ip), vehicle: saline with Tween-80 98 % of control | [1] 112 % of control | dose: 200.0 mg/kg/injection, schedule: Q01DX001 (ip), vehicle: other 98 % of control | dose: 200.0 mg/kg/injection, schedule: Q01DX009 (ip), vehicle: saline with Tween-80 97 % of control | [2] 102 % of control | dose: 400.0 mg/kg/injection, schedule: Q01DX001 (ip), vehicle: other 104 % of control | dose: 400.0 mg/kg/injection, schedule: Q01DX009 (ip), vehicle: saline with Tween-80 104 % of control | [3] 98 % of control
